Data reported in PMC8210616, “Adjuvant-free peptide vaccine targeting Clec9a on dendritic cells can induce robust antitumor immune response through Syk/IL-21 axis” (Theranostics, 2021).
Entries after “also recorded” stand apart in the source; their conditions may differ. Ends that are not written are not given here. Peptide text beside a SMILES is read from it. * marks the point of attachment. biotin = biotin on the C-terminal Lys, O=C1N[C@H]2[C@H](CS[C@H]2CCCCC(=O)*)N1; Biotin = O=C1N[C@H]2[C@H](CS[C@H]2CCCCC(=O)*)N1

Columns and labels:
[1] = test system: HEK-293T^mock cells; assay: Peptide binding assay by flow cytometry, mock-transfected HEK-293T cells; conditions: biotinylated peptides 100 µM, 30 min on ice, SA-PE
Procedure: (§1) HEK-293T cells were transiently transfected with pIRES2-EGFP-mClec9a plasmid, or the mock pIRES2-EGFP plasmid for binding assay. Cells (3 × 10^5) were incubated with rat serum to block Fc receptors and different biotinylated peptides for 30 min on ice. After washing three times, cells were stained with streptavidin (SA)-PE for 30 min on ice, and the samples were analyzed for binding affinity by a flow cytometry after washing once.

[2] = test system: spleen cDC1s; assay: Phagocytosis / targeting of cDC1s in vivo; set-up: species or system mouse; conditions: 100 μg biotinylated peptide s.c., sacrificed after 15 min, n = 3 per group
Source text: Based on our previous study, Asp248 and Trp250 were two key residues for Clec9a to bind with WH peptide. In order to improve the binding of WH peptide to Clec9a, a silico residue scanning approach was applied to design high affinity WH mutants. The mutants were predicted by using the module of Residue Scanning mutates function, MOE (Molecular Operating Environments) software (2018 version, Chemical Computing Group Inc, Montreal, Quebec, Canada). Two hundred and twenty peptides were obtained, among which 15 peptides were selected and synthesized for experimental identification.
For phagocytosis in vivo, 6-week-old C57BL/6 mice were s.c. vaccinated with 100 μg biotinylated peptide. After 15 min of immunization, mice were sacrificed. Splenocytes were stained with anti-mouse CD45-FITC (30-F11), anti-mouse CD11c-PerCP-efluor […]
were fixed, permeabilized and further stained with SA-PE for CBP-12 targeting […]
For phagocytosis in vitro, FL-DCs were incubated with biotinylated GA peptide and CBP-12 for 30 min on ice, then cells were washed three times and culture for 2 h at 37 °C. FL-DCs were stained with anti-mouse CD45-FITC (30-F11), anti-mouse CD11c-PerCP-efluor 450 (N418), anti-mouse XCR1-BV650 (ZET) and CD11b-APC (M1/70) to mark cDC1s and cDC2s. Then FL-DCs were fixed, permeabilized and […]

[3] = test system: IL-21 in cDC1s (CD11c^+XCR1^+); assay: Intracellular cytokine staining for IL-21 in FL-DCs; type: cell-based, mouse
Procedure: FL-DCs were incubated with 100 μg/mL OVA257-264, GA-OVA, CBP-12-OVA or PBS and protein transport inhibitor cocktail at 37 °C for 6 h. For Syk phosphorylation inhibition assay, FL-DCs were incubated with 2.5 μM R406 (MCE, New Jersey, USA) for 1 h and then cultured with 100 μg/mL CBP-12-OVA and protein transport inhibitor cocktail at 37 °C for 6 h. IL-21 positive frequency was detected by ICS. R406 is an ATP-competitive Syk kinase inhibitor [26]. Cells stained with anti-mouse-CD11c-APC (N418), anti-mouse/rat XCR1-Brilliant Violet 650™ (ZET) and anti-mouse-IL-21-PE (FFA21) or Rat IgG2a-PE kappa Isotype Control (eBR2a) for IL-21 production were analyzed by a flow cytometry.

[4] = biological target: human Clec9a (Homo sapiens, UniProt Q6UXN8); assay: Binding to human Clec9a (data not shown)
[5] = test system: FL-DCs; assay: Uptake of peptide^biotin-SA-PE by FL-DCs, confocal microscopy; type: cell-based, mouse; conditions: for effect of endocytosis inhibitor on uptake of CBP-12 by FL-DCs: pre-incubation 1 h with inhibitor, then 50 μM CBP-12^biotin-SA-PE 2 h at 37 °C
Procedure: Biotinylated peptide was mixed with SA-PE in a molar ratio of 1: 3 to obtain SA-PE labeled peptide (peptide^biotin-SA-PE). FL-DCs from wild type (WT) or Clec9a^-/- mice was harvested and washed twice with PBS before use. […] After washing, cells were incubated with Hoechst 33342 (Beyotime Biotechnology, Beijing, China) for 1 h to stain the nucleus. Cells were analyzed with a confocal laser scanning microscopy (Leica TCS SP8, Wetzlar, Germany).

[6] = biological target: T1, mClec9a (Mus musculus, UniProt Q8BRU4); assay: Peptide binding assay by flow cytometry, mClec9a-transfected HEK-293T cells; conditions: biotinylated peptides 100 µM, 30 min on ice, SA-PE
T1 construct: expressed in transfected cells; host or cells: HEK-293T
T1 sequence (Q8BRU4 1-264 isoform Q8BRU4-4): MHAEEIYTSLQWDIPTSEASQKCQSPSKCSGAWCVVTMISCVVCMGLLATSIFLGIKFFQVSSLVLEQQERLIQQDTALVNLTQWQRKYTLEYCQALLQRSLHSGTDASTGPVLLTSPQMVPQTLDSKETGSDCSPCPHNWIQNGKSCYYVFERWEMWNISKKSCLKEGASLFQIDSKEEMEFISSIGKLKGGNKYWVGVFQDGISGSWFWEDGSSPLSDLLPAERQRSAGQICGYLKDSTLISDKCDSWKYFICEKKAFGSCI
Procedure: as §1

[7] = test system: spleen cDC1s (CD45^+CD11c^+XCR1^+); assay: Uptake of biotinylated peptide by spleen cDC1s in vitro; type: cell-based; conditions: mouse splenocytes, 6.25 µM biotinylated peptide 30 min on ice, then 2 h at 37 °C, SA-PE flow cytometry
Procedure: Mouse splenocytes (5 × 10^5) were incubated with biotinylated GA peptide and CBP-12 for 30 min on ice, and then cells were washed three times and cultured for 2 h at 37 °C. Spleen cells were stained with anti-mouse CD45-FITC (30-F11), anti-mouse CD11c-PerCP-efluor 450 (N418), anti-mouse XCR1-BV650 (ZET) and anti-mouse CD11b-APC (M1/70). Then cells were fixed, permeabilized and further stained with SA-PE for peptide uptake analysis.

[8] = biological target: T2, mouse Clec9a (mClec9a) protein (Mus musculus, UniProt Q8BRU4); assay: Binding affinity measurement by MST; conditions: ratio of MST KD values
T2 sequence (Q8BRU4 106-238 limits assumed): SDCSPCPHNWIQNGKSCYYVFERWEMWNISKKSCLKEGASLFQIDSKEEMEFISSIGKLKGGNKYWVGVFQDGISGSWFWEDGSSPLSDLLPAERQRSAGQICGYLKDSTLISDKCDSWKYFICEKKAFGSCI
Procedure: The affinity of the peptide to mouse Clec9a (mClec9a) protein was detected by microscale thermophoresis (MST) (NanoTemper Technologies GmhH, Germany). Briefly, mClec9a protein (Sino Biological, Beijing, China) was labeled with Red-NHS647 dye (NanoTemper Technologies GmhH, Germany), and the successfully labeled protein was used for affinity measurements. Peptides were diluted into serial concentrations with MST buffer. Equal volume of dye-labeled mClec9a protein was incubated with peptides at room temperature, the mixture was loaded onto capillaries (NanoTemper Technologies GmhH, Germany) and immediately analyzed by an MST instrument. The data were estimated by MO. Affinity Analysis v2.2.4.

[9] = In vitro enzyme degradation of peptide in mouse serum; type: in vitro ADME; conditions: 10% (V/V) mouse serum saline solution, peptide 1 mM, 37 °C, sampled 0, 0.25, 0.5, 1 and 2 h, residual peptide by RP-HPLC
Procedure: further stained with SA-PE. CBP-12 uptake by cDC1s and cDC2s were tested with […]
In vitro enzyme degradation of peptide
Peripheral blood of mice was stand at room temperature for 1 h, centrifuged for 10 min and then the supernatant was acquired. The peptide (1 mM) was added into 10% (V/V) serum saline solution and incubated for 2 h at 37 ℃. The samples taken at different time points were added 90% (V/V) acetonitrile-glacial acetic acid mixture and centrifuged for 15 min, then the supernatants were collected. The content of the residual peptide in samples was analyzed at 0 h, 0.25 h, 0.5 h, 1 h and 2 h by […]
CBP-12-OVA targeting to Clec9a together with adjuvant treated tumor model C57BL/6 or Clec9a−/− mice were s.c. injected with 2 × 10^5 B16-OVA cells. Three days after the tumor implantation, the mice were treated weekly for total of three times, with either 100 μg peptide or normal saline and 30 μg CpG ODN 1826 as adjuvant.
Then the mice were sacrificed after five days of the last injection.
Animal immunization and ex vitro CTL priming without adjuvant
For animal immunization and ex vivo CTL priming, female C57BL/6 mice of 6 -8 weeks were immunized with 20 μg OVA257–264, GA-OVA, CBP-12-OVA, or normal saline s.c. injected once a week for total of three times. Five days after the last

[10] = biological target: mouse Clec9a (mClec9a) protein (mouse) (UniProt Q8BRU4); assay: MST; mClec9a protein labeled with Red-NHS647 dye; peptides in serial dilution in MST buffer, room temperature; MO. Affinity Analysis v2.2.4
[11] = 50 µM peptide^biotin-SA-PE, 2 h, 37 °C, confocal

Chain of human Clec9a (Q6UXN8 whole entry): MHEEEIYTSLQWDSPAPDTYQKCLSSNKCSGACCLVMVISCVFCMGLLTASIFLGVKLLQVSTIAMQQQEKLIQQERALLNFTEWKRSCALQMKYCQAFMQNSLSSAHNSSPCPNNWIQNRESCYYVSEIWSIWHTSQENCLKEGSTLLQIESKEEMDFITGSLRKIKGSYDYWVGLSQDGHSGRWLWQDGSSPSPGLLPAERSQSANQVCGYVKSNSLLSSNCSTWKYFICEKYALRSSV

Molecule: CC(C)[C@H](NC(=O)[C@H](CO)NC(=O)[C@H](CO)NC(=O)[C@H](Cc1c[nH]cn1)NC(=O)[C@H](Cc1ccccc1)NC(=O)[C@H](CCCNC(=N)N)NC(=O)[C@@H]1CCCN1C(=O)[C@@H](N)Cc1c[nH]c2ccccc12)C(=O)N[C@@H](CCCNC(=N)N)C(=O)N[C@@H](Cc1c[nH]cn1)C(=O)N[C@H](C(=O)N[C@@H](Cc1c[nH]cn1)C(=O)NCC(=O)NCC(=O)NCC(=O)N[C@@H](CCCCNC(=O)CCCC[C@@H]1SC[C@@H]2NC(=O)N[C@@H]21)C(=O)O)[C@@H](C)O [CBP-12] (H-WPRFHSSVRHTHGGGK(Biotin)-OH; N-terminus and C-terminus assumed)
- binding to mock plasmid transfected HEK-293T cells [1]: did not bind
- targeting of cDC1s versus cDC2s in vivo [2]: could target to cDC1s but not cDC2s
- secretion of IL-21 from cDC1s, ICS ([3]; FL-DCs, 100 µg/mL peptide, 6 h, 37 °C): stimulated the secretion of IL-21 from cDC1s
- binding to human Clec9a [4]: could bind
- fluorescence signal in FL-DCs derived from Clec9a^-/- mice [5, 11]: much lower
- fluorescence signal in FL-DCs of WT mice [5, 11]: strong fluorescence signal
- binding to mClec9a-overexpressing HEK-293T cells [6]: higher binding affinity than the other peptides
- uptake by spleen cDC1s in vitro [7]: strong uptake
- affinity for mClec9a relative to WH peptide [8]: 37.2 fold
- stability in mouse serum [9]: resists protease hydrolysis; also recorded: stable in mouse serum for 1 h

Molecule: COc1cc(Nc2ncc(F)c(Nc3ccc4c(n3)NC(=O)C(C)(C)O4)n2)cc(OC)c1OC [R406, reference compound]
- effect on CBP-12-OVA induced IL-21 secretion from cDC1s ([3]; 2.5 µM R406 for 1 h, then 100 µg/mL CBP-12-OVA 6 h): suppress the secretion of IL-21

Molecule: N=C(N)NC(=O)c1nc(Cl)c(N)nc1N [amiloride, reference compound]
- effect of endocytosis inhibitor on uptake of CBP-12 by FL-DCs [5]: inhibited

Molecule: CN(C)CCCN1c2ccccc2Sc2ccc(Cl)cc21 [chlorpromazine, reference compound]
- effect of endocytosis inhibitor on uptake of CBP-12 by FL-DCs [5]: inhibited

Molecule: WPRFHSSVRHTHGGGK(biotin) [CBP-12^biotin (12-mer Clec9a binding peptide, …-GGG-K^biotin)]
- Kd [10]: 0.61 µM

Molecule: WPRFHSSVFHTHGGGK(biotin) [WH^biotin (WH peptide, …-GGG-K^biotin)]
- Kd [10]: 22.7 µM
